# Measurements published in PubChem BioAssay AID192 (DTP/NCI, 2004).
# Where “and” joins values, the source holds several entries; their conditions need not be identical. Equal values may be shown once. Toxic doses and inconclusive results are not listed. Square brackets hold non-standard residues; d marks the D form. Peptide text beside a SMILES is read from it. * marks the point of attachment. ξ: configuration not given here. ξF = NC(Cc1ccccc1)C(=O)O; Cbz = O=C(OCc1ccccc1)*; Sar = CNCC(=O)O
# System: BDF1 mice, B16 melanoma ip, median survival T/C
# Test: NCI In Vivo Anticancer Drug Screen. Data for tumor model B16 Melanoma (intraperitoneal) in B6D2F1 (BDF1) mice
# Details: endpoint: median survival time, higher = longer survival
# In short: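 Vehicle-treated animals serve as the reference (C); treated animals (T) are scored for survival or tumor size after tumor transplantation.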
# [1] = dose: 25.0 mg/kg/injection, schedule: Q01DX009 (ip), vehicle: Klucel (hydroxypropylcellulose) (HPC)
# [2] = dose: 50.0 mg/kg/injection, schedule: Q01DX009 (ip), vehicle: Klucel (hydroxypropylcellulose) (HPC)
# [3] = dose: 100.0 mg/kg/injection, schedule: Q01DX009 (ip), vehicle: Klucel (hydroxypropylcellulose) (HPC)
# [4] = dose: 200.0 mg/kg/injection, schedule: Q01DX009 (ip), vehicle: Klucel (hydroxypropylcellulose) (HPC)
# [5] = dose: 400.0 mg/kg/injection, schedule: Q01DX009 (ip), vehicle: Klucel (hydroxypropylcellulose) (HPC)
# [6] = dose: 12.5 mg/kg/injection, schedule: Q01DX009 (ip), vehicle: Klucel (hydroxypropylcellulose) (HPC)
# [7] = dose: 6.25 mg/kg/injection, schedule: Q01DX009 (ip), vehicle: saline
# [8] = dose: 12.5 mg/kg/injection, schedule: Q01DX009 (ip), vehicle: saline
# [9] = dose: 25.0 mg/kg/injection, schedule: Q01DX009 (ip), vehicle: saline
# [10] = dose: 50.0 mg/kg/injection, schedule: Q01DX009 (ip), vehicle: saline
# [11] = dose: 50.0 mg/kg/injection, schedule: Q01DX009 (ip), vehicle: saline with Tween-80
# [12] = dose: 100.0 mg/kg/injection, schedule: Q01DX009 (ip), vehicle: saline with Tween-80
# [13] = dose: 2.5 mg/kg/injection, schedule: Q01DX009 (ip), vehicle: saline
# [14] = dose: 200.0 mg/kg/injection, schedule: Q01DX009 (ip), vehicle: saline with Tween-80
compound,measurement,setting,value
O=C(Nc1nccs1)Nc1ccccc1C(F)(F)F,T/C,[1],103 % of control
same,T/C,[2],99 % of control
same,T/C,[3],97 % of control
same,T/C,[4],103 % of control
same,T/C,[5],99 % of control
Oc1cc(N2CC2)c(O)cc1N1CC1,T/C,"dose: 0.22 mg/kg/injection, schedule: Q01DX009 (ip), vehicle: saline",123 % of control
same,T/C,"dose: 0.44 mg/kg/injection, schedule: Q01DX009 (ip), vehicle: saline",188 % of control
same,T/C,"dose: 0.68 mg/kg/injection, schedule: Q01DX009 (ip), vehicle: saline",156 % of control and 159 % of control
O=CC(NC(=O)N(CCCl)N=O)C(O)C(O)C(O)CO (stereo unspecified),T/C,"dose: 1.3 mg/kg/injection, schedule: Q01DX009 (ip), vehicle: saline",153 % of control
same,T/C,"dose: 3.0 mg/kg/injection, schedule: Q01DX009 (ip), vehicle: saline",101 % of control and 201 % of control
same,T/C,"dose: 4.0 mg/kg/injection, schedule: Q01DX009 (ip), vehicle: saline",198 % of control
same,T/C,"dose: 4.5 mg/kg/injection, schedule: Q01DX009 (ip), vehicle: saline",109 % of control and 201 % of control
same,T/C,"dose: 6.25 mg/kg/injection, schedule: Q01DX001 (ip), vehicle: saline",154 % of control
same,T/C,"dose: 6.7 mg/kg/injection, schedule: Q01DX009 (ip), vehicle: saline",287 % of control
same,T/C,"dose: 7.5 mg/kg/injection, schedule: Q01DX001 (ip), vehicle: saline with Tween-80",184 % of control
same,T/C,"dose: 8.0 mg/kg/injection, schedule: Q01DX009 (ip), vehicle: saline",91 % of control
same,T/C,"dose: 10.0 mg/kg/injection, schedule: Q01DX009 (ip), vehicle: saline",159 % of control
same,T/C,"dose: 12.5 mg/kg/injection, schedule: Q01DX001 (ip), vehicle: saline",191 % of control
same,T/C,"dose: 13.0 mg/kg/injection, schedule: Q01DX001 (ip), vehicle: saline",201 % of control
same,T/C,"dose: 15.0 mg/kg/injection, schedule: Q01DX001 (ip), vehicle: saline with Tween-80",284 % of control
same,T/C,"dose: 20.0 mg/kg/injection, schedule: Q01DX001 (ip), vehicle: saline",163 % of control and 259 % of control
same,T/C,"dose: 25.0 mg/kg/injection, schedule: Q01DX001 (ip), vehicle: saline",277 % of control
same,T/C,"dose: 30.0 mg/kg/injection, schedule: Q01DX001 (ip), vehicle: saline with Tween-80",285 % of control
same,T/C,"dose: 30.0 mg/kg/injection, schedule: Q01DX001 (ip), vehicle: saline",114 % of control and 287 % of control
same,T/C,"dose: 67.0 mg/kg/injection, schedule: Q01DX001 (ip), vehicle: saline",287 % of control
CCOc1ccc(N2C(=O)CSC2=S)cc1,T/C,[6],103 % of control
same,T/C,[1],91 % of control
same,T/C,[2],95 % of control
CC(=O)c1ccc2c(c1)N(CCCN1CCN(CCO)CC1)c1ccccc1S2,T/C,"dose: 0.78 mg/kg/injection, schedule: Q01DX009 (ip), vehicle: saline",98 % of control
same,T/C,"dose: 1.56 mg/kg/injection, schedule: Q01DX009 (ip), vehicle: saline",103 % of control
same,T/C,"dose: 3.12 mg/kg/injection, schedule: Q01DX009 (ip), vehicle: saline",97 % of control
CCc1cnccc1C,T/C,[1],100 % of control
same,T/C,[2],112 % of control
NC1CONC1=O (stereo unspecified),T/C,[7],109 % of control
same,T/C,[8],88 % of control
same,T/C,[9],109 % of control
same,T/C,[10],102 % of control
same,T/C,"dose: 100.0 mg/kg/injection, schedule: Q01DX009 (ip), vehicle: saline",105 % of control
same,T/C,"dose: 200.0 mg/kg/injection, schedule: Q01DX009 (ip), vehicle: saline",100 % of control
same,T/C,"dose: 400.0 mg/kg/injection, schedule: Q01DX009 (ip), vehicle: saline",91 % of control
COc1cc2c(cc1OC)C(C#N)N(C(=O)c1ccccc1)C=C2 (stereo unspecified),T/C,"dose: 0.1 mg/kg/injection, schedule: Q01DX009 (ip), vehicle: other",102 % of control
same,T/C,"dose: 0.19 mg/kg/injection, schedule: Q01DX009 (ip), vehicle: other",104 % of control
same,T/C,"dose: 0.38 mg/kg/injection, schedule: Q01DX009 (ip), vehicle: other",107 % of control
same,T/C,"dose: 0.75 mg/kg/injection, schedule: Q01DX009 (ip), vehicle: other",111 % of control
same,T/C,"dose: 1.5 mg/kg/injection, schedule: Q01DX009 (ip), vehicle: other",112 % of control
O=C(NC(Cc1ccccc1)C(=O)NC(CO)C(=O)O)OCc1ccccc1 (stereo not drawn) (Cbz-Phe-Ser-OH; configuration not given here),T/C,[11],95 % of control
same,T/C,[12],90 % of control
CCOC(OCC)C(=O)NNC(C)C,T/C,[7],105 % of control
same,T/C,[8],111 % of control
same,T/C,[10],100 % of control
N#CC(Cc1ccccc1Cl)(Cc1ccccc1Cl)c1ccccc1,T/C,[3],100 % of control
same,T/C,[4],105 % of control
same,T/C,[5],105 % of control
N#CC(Br)C(N)=O (stereo unspecified),T/C,[13],93 % of control
same,T/C,"dose: 5.0 mg/kg/injection, schedule: Q01DX009 (ip), vehicle: saline",94 % of control
Cc1[nH]ccc2c(C)c3nc4ccc(O)cc4c3cc12,T/C,"dose: 2.5 mg/kg/injection, schedule: Q04DX003 (ip), vehicle: water",123 % of control
same,T/C,"dose: 5.0 mg/kg/injection, schedule: Q04DX003 (ip), vehicle: water",121 % of control
same,T/C,"dose: 20.0 mg/kg/injection, schedule: Q04DX003 (ip), vehicle: water",153 % of control
same,T/C,"dose: 40.0 mg/kg/injection, schedule: Q04DX003 (ip), vehicle: water",113 % of control
O=S(=O)(O)O.[Ga],T/C,[8],101 % of control
same,T/C,[9],94 % of control
same,T/C,[10],91 % of control
CN(CC(=O)NC(Cc1ccccc1)C(=O)O)C(=O)OCc1ccccc1 (stereo unspecified) (Cbz-[Sar]-[ξF]-OH),T/C,[11],97 % of control
same,T/C,[12],96 % of control
same,T/C,[14],103 % of control
Cc1ccc(NC(=O)Nc2ccccc2Cl)cc1Cl,T/C,[2],100 % of control
same,T/C,[3],104 % of control
CCCCCCCCCCNCCC(=O)O,T/C,"dose: 0.58 mg/kg/injection, schedule: Q01DX009 (ip), vehicle: saline",98 % of control
same,T/C,"dose: 1.1 mg/kg/injection, schedule: Q01DX009 (ip), vehicle: saline",96 % of control
same,T/C,"dose: 2.3 mg/kg/injection, schedule: Q01DX009 (ip), vehicle: saline",95 % of control
same,T/C,"dose: 37.5 mg/kg/injection, schedule: Q01DX009 (ip), vehicle: saline",102 % of control
OC(CC(O)(C(F)(F)F)C(F)(F)F)c1cccc(Cl)c1 (stereo unspecified),T/C,"dose: 50.0 mg/kg/injection, schedule: Q04DX003 (ip), vehicle: gum acacia",105 % of control
same,T/C,"dose: 100.0 mg/kg/injection, schedule: Q04DX003 (ip), vehicle: gum acacia",90 % of control
same,T/C,"dose: 200.0 mg/kg/injection, schedule: Q04DX003 (ip), vehicle: gum acacia",90 % of control
CCCCCCCC(O)CCC (stereo unspecified),T/C,[3],105 % of control
same,T/C,[4],97 % of control
same,T/C,[5],93 % of control
N#CCCN(CCC#N)/N=N\c1nc[nH]c1C(N)=O,T/C,[11],89 % of control
same,T/C,[12],100 % of control
same,T/C,[14],100 % of control
same,T/C,"dose: 400.0 mg/kg/injection, schedule: Q01DX009 (ip), vehicle: saline with Tween-80",100 % of control
O=C(c1ccc(O)cc1O)c1cccc2ccccc12,T/C,[3],98 % of control
same,T/C,[4],98 % of control
same,T/C,[5],100 % of control
CN1CCC23c4c5ccc(O)c4OC2C(O)C=CC3C1C5 (stereo unspecified),T/C,"dose: 32.0 mg/kg/injection, schedule: Q01DX009 (ip), vehicle: saline",114 % of control
same,T/C,"dose: 64.0 mg/kg/injection, schedule: Q01DX009 (ip), vehicle: saline",111 % of control
same,T/C,"dose: 128.0 mg/kg/injection, schedule: Q01DX009 (ip), vehicle: saline",100 % of control
same,T/C,"dose: 256.0 mg/kg/injection, schedule: Q01DX009 (ip), vehicle: saline",94 % of control
Cc1cc2c3ccc(C)[n+](C)c3ccc2n1C,T/C,"dose: 0.08 mg/kg/injection, schedule: Q01DX009 (ip), vehicle: saline",102 % of control
same,T/C,"dose: 0.15 mg/kg/injection, schedule: Q01DX009 (ip), vehicle: saline",92 % of control
same,T/C,"dose: 0.3 mg/kg/injection, schedule: Q01DX009 (ip), vehicle: saline",97 % of control
same,T/C,"dose: 1.25 mg/kg/injection, schedule: Q01DX009 (ip), vehicle: saline",100 % of control
same,T/C,[13],94 % of control
Cc1cc(C(=O)NNCc2ccccc2)no1,T/C,"dose: 3.12 mg/kg/injection, schedule: Q01DX009 (ip), vehicle: Klucel (hydroxypropylcellulose) (HPC)",88 % of control and 98 % of control
same,T/C,"dose: 6.25 mg/kg/injection, schedule: Q01DX009 (ip), vehicle: Klucel (hydroxypropylcellulose) (HPC)",88 % of control and 98 % of control
same,T/C,[6],99 % of control
same,T/C,[1],90 % of control and 92 % of control and 102 % of control
same,T/C,[2],90 % of control
CCCCCCCNC(=O)Nc1cccc(Cl)c1C,T/C,[2],99 % of control
same,T/C,[3],90 % of control
same,T/C,[4],95 % of control
